# Patent US20230072854A1, “PARAXANTHINE-BASED BIOACTIVE COMPOSITION AND METHOD OF USE THEREOF” (Ingenious Ingredients, LP, priority 2020, published 2023)
# “Also recorded” adds a separate entry of the source.
# Key:
# Type in all cases: in vivo, human
# subjects = test: Paraxanthine pre-workout, subject reports; details: single subject, own words
# Description: Health subjects were administered paraxanthine and asked to report their experience. Subjects reported the following.
# volunteers [1] = test: Berg-Washington Card Sorting Task Test (BCST), double blind crossover vs placebo; details: 200 mg
# Description: (§1) In a double blind, randomized, crossover, and repeated measures manner, 13 volunteers (10 male, 3 female, average age 24±5 years, average body weight 72.91±19.30 kg, average height 169.96±11.84 cm, average BMI 24.80±3.71 kg/m^2) participated in this study. Participants limited ingestion of caffeine and other stimulants to normal use for 48-hours, fasted for 8-hours and reported to the lab and completed 4 different cognitive function tests to assess short-term attention and inhibitory control (Go-No Go Test), sustained attention (Vigilance Task Test), working memory (Sternberg Task Test) and cognitive flexibility (Berg-Washington Card Sorting Test). Once completed, the participants ingested either a placebo or 200 mg of paraxanthine (WGI, TX, USA) with 8 ounces of water. Participants repeated cognitive function tests 1, 2, 3, 4, 5, and 6 hours after ingestion of the supplement. After one-week participants repeated the experiment while consuming the other treatment.
# (§2) Data were analyzed by a General Linear Model multivariate and univariate analyses with repeated measures using body weight as a covariate. Data are expressed as means±standard deviations for the placebo (PLA) and Paraxanthine (PrX). Greenhouse-Geisser univariate p-levels are listed for time (T), weight×time (W×T) and group×time (G×T) interactions effects. Pairwise comparison is indicated by the following superscripts: †=[…] difference from baseline value; *=[…] difference from baseline; a=[…] difference between groups; b=[…] difference between groups. Eta2 vaules of […] are considered small, […] medium, and >0.14 are considered large.
# Berg-Washington Card Sorting Task Test is a test of basic cognitive flexibility or set-shifting between old/new rule changes. The test involves reasoning, learning, executive control and attention shifting. It is particularly sensitive to the inability to shift set. Less errors means subjects were able to both recognize and ‘shift’ to a new rule with higher ability. […]
# volunteers [2] = test: Go/No-Go test, double blind crossover vs placebo; details: 200 mg
# Description: as §1, §2
# A test of sustained attention and response control (i.e., attention/inhibition). Lower response times represents better ability to pay attention and inhibitory control.
# [3] = Mean (SEM) over all hours, listed as PrX
smiles,measurement,setting,value
"Cn1c(=O)[nH]c2ncn(C)c2c1=O [paraxanthine, 1,7-dimethylxanthine]",experience reported by subject,subjects,"happier, better, more energy and focused; also recorded: phenomenal; also recorded: clean energy, but not stressed or stimmed; also recorded: it works"
same,"number of correct answers in BCST, in words",volunteers [1],significantly increased
same,"number of errors in BCST, in words",volunteers [1],reducing the number of errors
same,perseverative errors PEBL (FIG. 3),volunteers [1],no significant time or between treatment effects
same,BCST Correct Response,volunteers [1]; Mean (SEM) over all hours,97.3
same,BCST Errors,volunteers [1]; Mean (SEM) over all hours,18.0
same,BCST Perseverative Errors (PAR rules),volunteers [1]; Mean (SEM) over all hours,8.7 ± 1.6
same,BCST Perseverative Errors (PEBL),volunteers [1]; Mean (SEM) over all hours,12.7 ± 1.2
same,BCST Correct Response,volunteers [1]; [3],102.5 ± 3.4
same,BCST Errors,volunteers [1]; [3],18.0 ± 3.9
same,change in correct answers after 6 hours,volunteers [1]; after 6 hours,+1.9
same,change in errors after 6 hours,volunteers [1]; after 6 hours,−0.6
same,correct responses adjusted for differences in baseline values,volunteers [1]; baseline-adjusted,2.5
same,errors adjusted for differences in baseline values,volunteers [1]; baseline-adjusted,−1.5
same,"less errors than placebo, adjusted for differences in baseline values","volunteers [1]; baseline-adjusted, vs placebo",600%
same,"more correct responses than placebo, adjusted for differences in baseline values","volunteers [1]; baseline-adjusted, vs placebo",150%
same,BCST Correct Response,volunteers [1]; hour 0 (before ingestion),100.0 ± 6.6
same,BCST Errors,volunteers [1]; hour 0 (before ingestion),19.5 ± 6.6
same,BCST Perseverative Errors (PAR rules),volunteers [1]; hour 0 (before ingestion),10.1 ± 4.6
same,BCST Perseverative Errors (PEBL),volunteers [1]; hour 0 (before ingestion),13.7 ± 5.0
same,BCST Correct Response,volunteers [1]; hour 1 after ingestion,101.4 ± 3.6
same,BCST Errors,volunteers [1]; hour 1 after ingestion,18.1 ± 4.3
same,BCST Perseverative Errors (PAR rules),volunteers [1]; hour 1 after ingestion,8.8 ± 2.1
same,BCST Perseverative Errors (PEBL),volunteers [1]; hour 1 after ingestion,12.5 ± 3.0
same,BCST Correct Response,volunteers [1]; hour 2 after ingestion,104.3
same,BCST Errors,volunteers [1]; hour 2 after ingestion,16.8
same,BCST Perseverative Errors (PAR rules),volunteers [1]; hour 2 after ingestion,7.8
same,BCST Perseverative Errors (PEBL),volunteers [1]; hour 2 after ingestion,12.3
same,number of correct responses (FIG. 1),volunteers [1]; hour 2 and 4 over baseline,significantly (p<0.5) increased
same,BCST Correct Response,volunteers [1]; hour 3 after ingestion,100.6 ± 5.8
same,BCST Errors,volunteers [1]; hour 3 after ingestion,17.0 ± 3.9
same,BCST Perseverative Errors (PAR rules),volunteers [1]; hour 3 after ingestion,8.5 ± 2.9
same,BCST Perseverative Errors (PEBL),volunteers [1]; hour 3 after ingestion,12.3 ± 3.2
same,number of correct responses between groups (FIG. 1),"volunteers [1]; hour 4, between groups",showed a trend (p<0.1) between groups
same,BCST Correct Response,volunteers [1]; hour 4 after ingestion,106.4
same,BCST Errors,volunteers [1]; hour 4 after ingestion,19.0
same,BCST Perseverative Errors (PAR rules),volunteers [1]; hour 4 after ingestion,8.6
same,BCST Perseverative Errors (PEBL),volunteers [1]; hour 4 after ingestion,13.3
same,BCST Correct Response,volunteers [1]; hour 5 after ingestion,101.5 ± 4.0
same,BCST Errors,volunteers [1]; hour 5 after ingestion,18.5 ± 4.2
same,BCST Perseverative Errors (PAR rules),volunteers [1]; hour 5 after ingestion,8.8 ± 3.6
same,BCST Perseverative Errors (PEBL),volunteers [1]; hour 5 after ingestion,13.1 ± 3.6
same,perseverative errors PAR between groups (FIG. 4),"volunteers [1]; hour 6, between groups",trend (p<0.1) towards less errors between groups
same,BCST Correct Response,volunteers [1]; hour 6 after ingestion,103.5
same,BCST Errors,volunteers [1]; hour 6 after ingestion,16.3
same,BCST Perseverative Errors (PAR rules),volunteers [1]; hour 6 after ingestion,8.1
same,BCST Perseverative Errors (PEBL),volunteers [1]; hour 6 after ingestion,11.7
same,errors compared to baseline (FIG. 2),volunteers [1]; hour 6 vs baseline,trend (p<0.1) towards less error
same,"less errors than placebo, overall","volunteers [1]; overall, vs placebo",23.7%
same,"more correct responses than placebo, overall","volunteers [1]; overall, vs placebo",5.3%
same,Round 1 Condition P mean response time (FIG. 6),volunteers [2],no significant differences over time or between treatments
same,"percentage of correct answers, in words",volunteers [2],maintained percentage of correct answers
same,Correct Response Mean Accuracy (%),volunteers [2]; Mean (SEM) over all hours,92.5%
same,Round 1: Condition P Mean - Response Time (Millisecond),volunteers [2]; Mean (SEM) over all hours,394.55 ± 18.07 Millisecond
